ChEMBL document CHEMBL1944594, “Synthesis, biological evaluation, and docking studies of tetrahydrofuran- cyclopentanone- and cyclopentanol-based ligands acting at adrenergic α₁- and serotonine 5-HT1A receptors” (J Med Chem, 2012)

Columns and labels:
[1] = biological target: T1, Alpha-1B adrenergic receptor (Rattus norvegicus) (UniProt P15823); assay: Antagonist activity at Alpha-1B receptor in Wistar rat spleen assessed as inhibition of (-)-phenylephrine-induced contraction after 30 mins; format: functional, tissue-based
T1 sequence (whole entry): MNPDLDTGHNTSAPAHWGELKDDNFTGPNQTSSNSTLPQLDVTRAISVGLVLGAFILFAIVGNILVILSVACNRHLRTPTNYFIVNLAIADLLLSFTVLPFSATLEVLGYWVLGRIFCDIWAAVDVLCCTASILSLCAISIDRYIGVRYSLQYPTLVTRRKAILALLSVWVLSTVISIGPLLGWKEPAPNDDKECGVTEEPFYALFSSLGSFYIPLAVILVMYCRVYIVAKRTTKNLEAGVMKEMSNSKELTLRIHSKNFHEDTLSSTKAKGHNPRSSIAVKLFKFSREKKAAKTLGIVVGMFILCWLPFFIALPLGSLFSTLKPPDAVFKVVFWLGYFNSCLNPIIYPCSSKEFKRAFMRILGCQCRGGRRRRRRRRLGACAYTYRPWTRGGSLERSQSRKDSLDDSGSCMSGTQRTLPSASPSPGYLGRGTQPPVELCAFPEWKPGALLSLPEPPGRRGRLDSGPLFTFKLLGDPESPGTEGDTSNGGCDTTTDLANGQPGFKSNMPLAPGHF

[2] = biological target: T2, 5-hydroxytryptamine receptor 1A (Homo sapiens) (UniProt P08908); details: HeLa
T2 sequence (whole entry): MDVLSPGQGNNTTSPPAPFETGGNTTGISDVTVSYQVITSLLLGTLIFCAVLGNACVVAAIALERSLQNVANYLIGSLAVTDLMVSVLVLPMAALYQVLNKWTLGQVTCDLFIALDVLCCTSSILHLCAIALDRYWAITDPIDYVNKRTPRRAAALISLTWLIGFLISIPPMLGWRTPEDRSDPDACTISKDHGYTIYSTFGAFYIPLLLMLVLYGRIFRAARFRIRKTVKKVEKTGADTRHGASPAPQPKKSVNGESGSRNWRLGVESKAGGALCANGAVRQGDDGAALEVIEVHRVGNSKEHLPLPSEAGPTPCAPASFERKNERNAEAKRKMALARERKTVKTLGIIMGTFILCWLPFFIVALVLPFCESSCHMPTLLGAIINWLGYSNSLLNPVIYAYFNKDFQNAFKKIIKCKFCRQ

[3] = biological target: T3, Alpha-1D adrenergic receptor (Rattus norvegicus) (UniProt P23944); assay: Antagonist activity at Alpha-1D adrenoceptor in Wistar rat endothelium denuded thoracic aorta assessed as inhibition of (-)-noradrenalilne-induced contraction after 30 mins; format: functional, tissue-based
T3 sequence (whole entry): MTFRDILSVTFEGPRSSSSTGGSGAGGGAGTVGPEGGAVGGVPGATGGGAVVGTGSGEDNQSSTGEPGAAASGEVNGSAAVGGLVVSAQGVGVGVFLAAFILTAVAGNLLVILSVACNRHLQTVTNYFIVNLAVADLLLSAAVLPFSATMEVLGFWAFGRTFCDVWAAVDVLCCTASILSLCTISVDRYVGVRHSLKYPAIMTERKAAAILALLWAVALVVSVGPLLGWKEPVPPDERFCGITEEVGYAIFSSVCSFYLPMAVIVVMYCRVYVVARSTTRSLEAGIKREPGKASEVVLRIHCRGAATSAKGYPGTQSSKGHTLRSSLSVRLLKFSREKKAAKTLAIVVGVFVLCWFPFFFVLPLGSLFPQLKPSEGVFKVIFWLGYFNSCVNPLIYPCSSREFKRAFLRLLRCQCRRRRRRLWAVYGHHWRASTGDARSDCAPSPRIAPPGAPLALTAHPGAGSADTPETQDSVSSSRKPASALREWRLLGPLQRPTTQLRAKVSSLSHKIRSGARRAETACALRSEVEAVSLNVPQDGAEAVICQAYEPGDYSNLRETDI

[4] = biological target: T2, 5-hydroxytryptamine receptor 1A (Homo sapiens); assay: Agonist activity at human recombinant 5HT1A receptor expressed in HeLa cells preincubated for 20 mins by [35S]GTPgammaS binding assay relative to 8-OH-DPAT; format: functional, cell-based
[5] = biological target: T4, Alpha-1A adrenergic receptor (Rattus norvegicus) (UniProt P43140); assay: Antagonist activity at alpha1A adrenoceptor in Wistar rat prostatic vas deferens assessed as inhibition of (-)-noradrenalilne-induced contraction after 30 mins; format: functional, tissue-based
T4 sequence (whole entry): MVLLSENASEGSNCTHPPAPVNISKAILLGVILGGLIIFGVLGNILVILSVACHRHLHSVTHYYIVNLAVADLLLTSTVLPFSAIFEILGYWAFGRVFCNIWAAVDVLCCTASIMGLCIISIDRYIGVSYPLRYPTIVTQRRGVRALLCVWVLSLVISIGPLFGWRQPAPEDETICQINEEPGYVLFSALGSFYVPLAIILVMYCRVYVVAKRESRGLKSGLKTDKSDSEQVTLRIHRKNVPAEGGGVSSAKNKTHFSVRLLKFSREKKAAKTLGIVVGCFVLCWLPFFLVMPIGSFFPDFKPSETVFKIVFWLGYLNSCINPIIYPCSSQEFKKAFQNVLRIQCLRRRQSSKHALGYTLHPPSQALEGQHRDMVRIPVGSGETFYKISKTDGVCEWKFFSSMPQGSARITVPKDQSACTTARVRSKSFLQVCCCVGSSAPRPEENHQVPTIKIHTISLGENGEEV

[6] = biological target: T5, Alpha-1B adrenergic receptor (Homo sapiens, UniProt P35368); assay: biochemical
T5 sequence (P35368 whole entry): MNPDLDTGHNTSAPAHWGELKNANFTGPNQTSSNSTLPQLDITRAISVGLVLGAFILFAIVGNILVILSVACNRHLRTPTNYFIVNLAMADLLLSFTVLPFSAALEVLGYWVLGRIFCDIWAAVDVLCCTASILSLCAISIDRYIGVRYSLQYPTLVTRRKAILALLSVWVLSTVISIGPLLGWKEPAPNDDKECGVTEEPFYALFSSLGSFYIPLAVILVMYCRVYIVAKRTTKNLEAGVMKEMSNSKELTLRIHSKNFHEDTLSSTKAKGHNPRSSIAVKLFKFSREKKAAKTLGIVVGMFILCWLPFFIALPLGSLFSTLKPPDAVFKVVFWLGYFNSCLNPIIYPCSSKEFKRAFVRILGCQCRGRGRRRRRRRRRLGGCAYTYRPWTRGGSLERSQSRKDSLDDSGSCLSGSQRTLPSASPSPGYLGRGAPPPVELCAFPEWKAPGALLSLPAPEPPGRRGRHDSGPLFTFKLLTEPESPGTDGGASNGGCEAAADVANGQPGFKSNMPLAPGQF
Description: Displacement of [3H]prazosin from human recombinant alpha1B adrenoceptor expressed in CHO cells after 30 mins by liquid scintillation counting

[7] = biological target: T6, Alpha-1D adrenergic receptor (Homo sapiens, UniProt P25100); assay: biochemical
T6 sequence (P25100 whole entry): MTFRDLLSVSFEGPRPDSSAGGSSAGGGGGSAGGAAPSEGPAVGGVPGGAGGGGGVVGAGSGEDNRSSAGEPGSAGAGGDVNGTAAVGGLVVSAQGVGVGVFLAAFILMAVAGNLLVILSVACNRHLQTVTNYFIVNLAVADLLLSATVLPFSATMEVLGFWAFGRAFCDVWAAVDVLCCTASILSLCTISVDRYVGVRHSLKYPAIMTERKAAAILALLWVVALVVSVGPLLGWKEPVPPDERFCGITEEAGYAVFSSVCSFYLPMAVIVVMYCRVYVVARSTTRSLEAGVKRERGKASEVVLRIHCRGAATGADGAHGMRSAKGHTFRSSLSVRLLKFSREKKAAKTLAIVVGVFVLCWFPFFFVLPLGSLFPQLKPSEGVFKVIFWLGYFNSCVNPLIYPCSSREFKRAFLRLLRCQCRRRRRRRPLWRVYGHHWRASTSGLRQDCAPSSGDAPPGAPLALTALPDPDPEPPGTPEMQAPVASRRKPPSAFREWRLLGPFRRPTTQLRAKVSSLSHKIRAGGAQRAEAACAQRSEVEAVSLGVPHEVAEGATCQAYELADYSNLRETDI
Description: Displacement of [3H]prazosin from human recombinant Alpha-1D adrenoceptor expressed in CHO cells after 30 mins by liquid scintillation counting

[8] = biological target: T7, Alpha-1A adrenergic receptor (Homo sapiens, UniProt P35348); assay: biochemical
T7 sequence (P35348 whole entry): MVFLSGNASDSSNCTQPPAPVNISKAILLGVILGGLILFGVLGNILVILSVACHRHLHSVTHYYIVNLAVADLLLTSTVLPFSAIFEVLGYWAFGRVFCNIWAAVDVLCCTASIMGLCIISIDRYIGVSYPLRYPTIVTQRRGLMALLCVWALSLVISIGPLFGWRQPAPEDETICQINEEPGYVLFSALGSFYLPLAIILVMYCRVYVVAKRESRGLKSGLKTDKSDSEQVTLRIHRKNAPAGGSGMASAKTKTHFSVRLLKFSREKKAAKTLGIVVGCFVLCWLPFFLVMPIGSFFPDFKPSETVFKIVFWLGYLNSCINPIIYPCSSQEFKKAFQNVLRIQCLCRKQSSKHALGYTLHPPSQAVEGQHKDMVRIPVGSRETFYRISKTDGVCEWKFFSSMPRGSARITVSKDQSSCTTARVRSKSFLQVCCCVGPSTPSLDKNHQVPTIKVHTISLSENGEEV
Description: Displacement of [3H]prazosin from human recombinant alpha1A adrenoceptor expressed in CHO cells after 30 mins by liquid scintillation counting

[9] = biological target: T8, 5-hydroxytryptamine receptor 1A (Homo sapiens, UniProt P08908); assay: biochemical
T8 sequence (P08908 whole entry): T2 sequence (whole entry)

Structure (SMILES)	pKb [1]	pD2 [2]	pKb [3]	Emax [4]	pKb [5]	Ki [6]	Ki [7]	Ki [8]	Ki [9]
COc1ccccc1N1CCN(C[C@H]2CCC(c3ccccc3)(c3ccccc3)[C@@H]2O)CC1	7.14	8.74	6.82	37.3%	6.39	245 nM	67.6 nM	44.7 nM	0.794 nM
COc1ccccc1N1CCN(C[C@H]2CCC(c3ccccc3)(c3ccccc3)[C@H]2O)CC1 (relative stereo)	7.25	9.03	7.21	47.1%	5.62	166 nM	67.6 nM	38.9 nM	0.562 nM
O=C1C(CNCCOc2ccccc2)CCC1(c1ccccc1)c1ccccc1 (centres undefined)	6.95	7.44	6.3	25.5%	< 5	> 1000 nM	389 nM	> 1000 nM	10.5 nM
COc1ccccc1N1CCN(CCN2C(=O)CC3(CCCC3)CC2=O)CC1	7.48	9.27							
COc1ccccc1N1CCN(CC2CCC(c3ccccc3)(c3ccccc3)C2=O)CC1 (centres undefined)	7.54		6.43		6.28	141 nM	155 nM	39.8 nM	3.47 nM
COc1ccccc1N1CCN(CC2COC(c3ccccc3)(c3ccccc3)O2)CC1 (centres undefined)	6.69	8.3	8.14	16.2%	8.24	6.76 nM	0.813 nM	0.263 nM	22.9 nM
COc1ccccc1OCCNCC1CCC(c2ccccc2)(c2ccccc2)O1 (centres undefined)	6.92	9.04	8.09	53.4%	7.24	39.8 nM	6.31 nM	26.9 nM	0.832 nM
COc1ccccc1OCCNCC1CCC(c2ccccc2)(c2ccccc2)C1=O (centres undefined)	6.92	8.37	6.54	39.4%	6.39	> 1000 nM	141 nM	> 1000 nM	3.47 nM
COc1ccccc1OCCNC[C@H]1CCC(c2ccccc2)(c2ccccc2)[C@@H]1O (relative stereo)	7.7	8.96	8.42	64.1%	6.57	74.1 nM	5.75 nM	110 nM	0.324 nM
COc1ccccc1N1CCN(CC2CCC(c3ccccc3)(c3ccccc3)O2)CC1 (centres undefined)	6.85		7.5		7.65	8.91 nM	3.89 nM	0.646 nM	4.37 nM

Other lines, results leading:

pKb [1]	pD2 [2]	pKb [3]	Emax [4]	pKb [5]	Ki [6]	Ki [7]	Ki [8]	Ki [9]	Structure (SMILES)
7.36	7.36	8.65	31.6%	7.53					COc1ccccc1OCCNCC1COC(c2ccccc2)(c2ccccc2)O1 (centres undefined)
6.67	7.94	6.86	64.9%	5.43	288 nM	93.3 nM	> 1000 nM	9.55 nM	O[C@@H]1[C@@H](CNCCOc2ccccc2)CCC1(c1ccccc1)c1ccccc1 (relative stereo)
6.26	7.81	6.88	46.5%	5.23	> 1000 nM	> 1000 nM	> 1000 nM	9.33 nM	O[C@@H]1[C@H](CNCCOc2ccccc2)CCC1(c1ccccc1)c1ccccc1 (relative stereo)
6.2		7.21		6.26	123 nM	31.6 nM	53.7 nM	2 nM	c1ccc(OCCNCC2CCC(c3ccccc3)(c3ccccc3)O2)cc1 (centres undefined)
5.86	8.8	8.37	24.4%	6.16					c1ccc(OCCNCC2COC(c3ccccc3)(c3ccccc3)O2)cc1 (centres undefined)
